Structures are written as SMILES.

Series [1] in a line: method code SF, from DOI: 10.1016/0048-3575(89)90162-4.
Experiment in series [2]: not given
This is another data set of the same source.

Series [3] is described as follows: method code SF-RC, from DOI: 10.1021/jm8013376, PMID: 19216563. The note with it: pH 7.4.
Series [4] is described as follows: method code SF, from Kim, K.; Kim, J.; Kim, Y. (1997). Study on physicochemical properties of pesticides. II. Hanguk Nonghwa Hakhoe Chi, 40(1)76-79.
Series [5] is described as follows: method code SF-AS, from DOI: 10.1211/0022357001773940, PMID: 10757413. The note with it: pH 7.4.
Series [6] can be described thus: method code SF-AS, from DOI: 10.1211/0022357011776199, PMID: 11428660. The note with it: pH 7.4.
The nature of series [7]: method code SF-HPLC, from DOI: 10.1002/etc.5620170216.
Experiment in series [8]: not given
This is another data set of the same source.

Experiment in series [9]: not given
This is another data set of the same source.

Series [10] in a line: method code SF-TN, from DOI: 10.1002/jps.2600741210, PMID: 4087196. The note with it: pH 7.4.
A short description of series [11]: method code SF-RC, from DOI: 10.1016/j.apradiso.2005.06.012, PMID: 16131471. The note with it: pH 7.5.
Series [12] in a line: method code SF-AS, from DOI: 10.1002/jps.2600751012, PMID: 3795027.
The nature of series [13]: method code SF-RC, from PMID: 7826467.
A short description of series [14]: from Maeno, S., Miura, I., Masuda, K., & Nagata, T. (1990). Mepanipyrim(KIF-3535), a new pyrimidine fungicide. In Brighton Crop Protection Conference, Pests and Diseases - 1990 (Vol. 2, pp. 415-422). ….
Series [15] can be described thus: method code SF, from DOI: 10.1016/0223-5234(96)89550-x.
Experiment in series [16]: not given
The source holds these as a separate data set.

Experiment in series [17]: not given
This is another data set of the same source.

Series [18] in a line: method code SF-HPLC, from DOI: 10.1021/jm970790w, PMID: 9548821. Conditions: pH 7.4.
A short description of series [19]: method code SF-HPLC, from DOI: 10.1021/je049947x.
Series [20] is described as follows: method code SF-AS, from DOI: 10.1584/jpestics.8.69.
Series [21] in a line: method code SF-RC, from DOI: 10.1007/bf00263256, PMID: 6394334.
Experiment in series [22]: not given
This is another data set of the same source.

Series [23] can be described thus: method code SF, from DOI: 10.1016/s0021-9673(00)89463-7. The note with it: pH 2.4.
Experiment in series [24]: not given
The source holds these as a separate data set.

The nature of series [25]: method code SF, from DOI: 10.1248/cpb.34.4787.
Experiment in series [26]: not given
This is another data set of the same source.

The nature of series [27]: method code SF-RC, from PMID: 892676.
Series [28] is described as follows: method code SF-GLC, from DOI: 10.1016/s0380-1330(82)71969-0.
A short description of series [29]: method code SF-RC, from DOI: 10.1002/syn.20147. The note with it: pH 7.4.
Experiment in series [30]: not given
This is another data set of the same source.

Experiment in series [31]: not given
This is another data set of the same source.

Series [32] can be described thus: method code SF-GLC, from DOI: 10.1002/etc.5620080702.
Experiment in series [33]: not given
This is another data set of the same source.

Series [34] is described as follows: method code SF, from He, J.; Lang, L.; Zhang, Q.; Dong, L.; Chen, F.; Xu, G. (2010). Study on physicochemical properties of helicid. China Pharmacy, (1)23-25. The note with it: pH 2.0.
Experiment in series [35]: not given
The source holds these as a separate data set.

Experiment in series [36]: not given
The source holds these as a separate data set.

Series [37] in a line: method code SF, from DOI: 10.1016/j.ejps.2007.04.003, PMID: 17540545. The note with it: pH 3.0.
Experiment in series [38]: not given
This is another data set of the same source.

The nature of series [39]: method code SF, from DOI: 10.1248/cpb.18.708. Conditions: pH 6.4.
Experiment in series [40]: not given
The source holds these as a separate data set.

Experiment in series [41]: not given
The source holds these as a separate data set.

Series [42] is described as follows: method code SF-RC, from DOI: 10.1016/j.nucmedbio.2009.03.005, PMID: 19647167. Conditions: pH 7.4.
Experiment in series [43]: not given
This is another data set of the same source.

A short description of series [44]: method code SF-AS, from DOI: 10.1002/em.2850200210, PMID: 1505530.
A short description of series [45]: method code SF-AS, from PMID: 582409. The note with it: pH 7.4.
Series [46] in a line: method code SF-AS, from DOI: 10.1081/jlc-100104900. The note with it: pH 1.0.
Experiment in series [47]: not given
The source holds these as a separate data set.

A short description of series [48]: method code SF-AS, from DOI: 10.1021/jm00001a010, PMID: 7837239. The note with it: pH 7.0.

`OC1(c2cc(Cl)ccc2Cl)CCCCC1n1cncn1` (centres undefined) yielded a logP in [1] of 3.24.
For `Nc1ccc(C=Cc2ccc(N)cc2S(=O)(=O)O)c(S(=O)(=O)O)c1`, the logP is -1.7.
`CCn1cc(C(=O)O)c(=O)c2cc([N+](=O)[O-])c(NCCO)cc21` came in with a lipophilicity (logP) in [2] of 0.98.
In [3], `Oc1ccc2nc(-c3ccccc3)sc2c1` showed a logD of 2.48.
In the case of `CCOP(=S)(OCC)Oc1cc(C(F)(F)F)nn1-c1ccccc1`, in series [4], the logP came out at 5.24.
In [5], `CCc1c(O)c(=O)ccn1CCCn1ccnc1` showed a logD of -0.32.
On to `Cc1ncc([N+](=O)[O-])n1CCOC(=O)CN1CCCCC1`, for which the logD in series [6] amounted to 0.51.
In turn, `c1ccc2cc3ccccc3cc2c1` returned a logP in series [7] of 4.68.
In [8], `O=C(O)c1cc(-c2ccc(F)cc2F)ccc1O` had a log partition coefficient (logP) of 3.95.
`CCCCCCn1c(=O)c2c(ncn2C)n(C)c1=O` yielded a lipophilicity (logP) in series [9] of 1.2.
In series [10], `CCCCOC(=O)[C@@H](N)Cc1ccc(O)cc1` showed a logD of 1.8.
In turn, `COc1ccc2[nH]c(I)c(CCNC(C)=O)c2c1` came in with a logD in [11] of 2.52.
In turn, `O=C(OCc1ccccc1)c1cccnc1` returned a logP in series [12] of 2.4.
As to `COc1ccc2c(C)cc(=O)n3c(C)cc1c23`, the log partition coefficient (logP) in series [13] turned out to be 2.84.
`CC#Cc1cc(C)nc(Nc2ccccc2)n1`: in [14], the log partition coefficient (logP) worked out at 3.42.
In series [15], `O=C(Nc1ccn(C2CSC(CO)O2)c(=O)n1)c1cccnc1` (centres undefined) showed a lipophilicity (logP) of 0.84.
For the compound `Cc1cc(Cc2cc(Cl)ccc2Cl)c(Cl)cc1Cl`, the log partition coefficient (logP) in [16] is 6.38.
The compound `CCOP(=O)(OCC)Oc1cc(C)nc(NC(C)C)n1` displayed a lipophilicity (logP) in series [17] of 2.07.
In [18], `CC1(C)O[C@@H]2[C@@H](CO[C@@]3(COS(N)(=O)=O)OC(C)(C)O[C@@H]23)O1` had a logD of 0.53.
`Cc1cccc(C)c1N(Cn1cccn1)C(=O)CCl` came in with a logP in series [19] of 2.22.
For the compound `ClC(Cl)C(c1ccccc1)c1ccccc1`, the logP in series [20] is 4.51.
Regarding `CC(=NO)C(C)(C)NCCCNC(C)(C)C(C)=NO`, the lipophilicity (logP) in [21] stood at 1.76.
`Clc1ccc(C(c2ccc(Cl)cc2)C(Cl)Cl)cc1` returned a log partition coefficient (logP) in series [22] of 5.19.
In the case of `O=C(O)c1ccc2oc3ccccc3c(=O)c2c1`, in series [23], the logD was 3.12.
Regarding `O=[N+]([O-])c1ccc(Oc2ccc(C(F)(F)F)cc2[N+](=O)[O-])cc1`, in [24], the lipophilicity (logP) was determined as 3.7.
Take `O=C(O)c1ccc(-c2ccccc2)cc1`: the logP in [25] is 3.75.
On to `FCCCN1CCC[C@H]1COc1cccnc1`, for which the logP in series [26] is 2.2.
In series [27], `O=C(Nc1ccc(Cl)cc1)Nc1ccc(Cl)c(C(F)(F)F)c1` came in with a log partition coefficient (logP) of 2.93.
In [28], `Clc1ccc(C(c2ccc(Cl)cc2)C(Cl)(Cl)Cl)cc1` came in with a logP of 5.1.
Turning to `Cc1cc(C#N)cc(C#Cc2csc(C)n2)c1`, the pH-dependent lipophilicity (logD) in [29] amounted to 3.4.
On to `O=C(Oc1ccccc1)c1ccccc1`, for which, in [30], the log partition coefficient (logP) stood at 3.5.
For the compound `N#Cc1ccc(NS(=O)(=O)c2ccc(N)cc2)cc1`, the logP in [31] was 1.43.
On to `Clc1ccc(C2OC2c2ccccc2)cc1` (centres undefined), for which the logP in [32] was 4.54.
Take `Cc1cc2cccc(C)c2cc1C`: the log partition coefficient (logP) in series [33] was 4.73.
`O=Cc1ccc(O[C@@H]2O[C@H](CO)[C@@H](O)[C@@H](O)[C@H]2O)cc1` gave a logD in series [34] of -1.08.
As for `O=c1[nH]c2c(c(=O)n1C1CCCCC1)CCC2`, in [35], the lipophilicity (logP) was 1.9.
Consider `CC(C)c1cccc(C(C)C)c1O`, for which the log partition coefficient (logP) in series [36] was 3.63.
In turn, `CCn1cc(C(=O)O)c(=O)c2cc3c(cc21)OCO3` came in with a logD in series [37] of 1.01.
In the case of `Cn1ccc2cc(-c3nc4ccc(F)nc4o3)cnc21`, the logP in series [38] came out at 2.91.
Take `Cc1cc(C)cc(NS(=O)(=O)c2ccc(N)cc2)c1`: in [39], the pH-dependent lipophilicity (logD) turned out to be 2.52.
In turn, `CCNc1ccc(C(=O)OCCN(C)C)cc1` had a logP in series [40] of 2.62.
With `Fc1cccc(-n2nnnc2Oc2ccccc2)c1`, the logP in [41] is 3.6.
Consider `CO/N=C1/C=C(C#Cc2cccc(F)n2)CCC1`, for which the pH-dependent lipophilicity (logD) in series [42] came out at 2.11.
`CCOC(=O)CCCn1c(=O)oc2ccccc2c1=O` registered a log partition coefficient (logP) in series [43] of 0.63.
In turn, `O=C1c2ccccc2-c2cc([N+](=O)[O-])ccc21` gave a log partition coefficient (logP) in [44] of 3.06.
`COc1ccc(-c2nc3c(N)nc(N)nc3nc2N)cc1` yielded a pH-dependent lipophilicity (logD) in [45] of 1.19.
In series [46], `CC(C(=O)O)c1ccc(C(=O)c2ccccc2)s1` (centres undefined) had a logD of 2.86.
In the case of `O=C(OCc1ccccc1)c1ccc(O)cc1`, the log partition coefficient (logP) in series [47] came out at 3.56.
Consider `C=CCn1cnc2c(=O)[nH]c(Nc3ccccc3)nc21`, for which the log distribution coefficient (logD) in series [48] was 1.75.

The logP is the decadic logarithm of the partition coefficient of the neutral form, usually between octanol and water. Usually logD stands for lipophilicity at a set pH, counting ionised and neutral species. A low value points to a more hydrophilic compound.

These data come from the SangsterLogP compilation.
